Source: PubChem BioAssay (NCI)
Several values for one entry are separate records, joined by “and”; a condition that tells them apart may be missing. Identical values can stand only once.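 Compound exposure: 48 hours, 5 concentrations, 96-well plates. Here, GI50 denotes the concentration required for 50% inhibition of growth. The concentration for full growth arrest is given as TGI.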

Key:
Test in all cases: NCI anticancer screen, dose series, 48 h
LXFL 529 NSCLC = test system: LXFL 529 NSCLC
MDA-MB-435 = test system: MDA-MB-435
HOP-18 NSCLC = test system: HOP-18 NSCLC
PC-3 prostate = test system: PC-3 prostate
T-47D breast = test system: T-47D breast
DMS 273 small cell lung = test system: DMS 273 small cell lung
KM20L2 colon = test system: KM20L2 colon
HS 578T breast = test system: HS 578T breast
BT-549 breast = test system: BT-549 breast
NCI/ADR-RES ovarian = test system: NCI/ADR-RES ovarian

Row | Structure (SMILES) | TGI (LXFL 529 NSCLC) | TGI (MDA-MB-435) | GI50 (HOP-18 NSCLC) [µM] | TGI (HOP-18 NSCLC) | TGI (PC-3 prostate) | TGI (T-47D breast) | TGI (DMS 273 small cell lung) | TGI (KM20L2 colon) [µM] | TGI (HS 578T breast) [µM] | TGI (BT-549 breast) | GI50 (MDA-MB-435) | GI50 (NCI/ADR-RES ovarian) | TGI (NCI/ADR-RES ovarian) [µM] | GI50 (PC-3 prostate) | GI50 (T-47D breast) | GI50 (HS 578T breast) | GI50 (BT-549 breast) | GI50 (LXFL 529 NSCLC) [µM] | GI50 (DMS 273 small cell lung) [µM] | GI50 (KM20L2 colon) [µM]
1 | CCC/C(=N\NC(=S)N1CCN(c2ccccn2)CC1)c1ccccn1 | 0.0757 µM and 0.241 µM | 1.96 µM | 0.0316 | 0.68 µM and 1.15 µM | 1.26 µM | 0.389 µM | 1.37 µM and 1.42 µM | 1.58 | 3.76 | 1.92 µM | – | – | – | – | – | – | – | – | – | –
2 | CC/C=C\C[C@H](O)C/C=C1/C(=O)C=C[C@@H]1C/C=C\CCCC(=O)NC(C)C | – | 6.51 µM | – | – | 6.24 µM | 19.2 µM | – | – | 49.5 | 6.13 µM | 2.3 µM | 3.28 µM | 13.6 | 2.52 µM | 4.19 µM | 7.74 µM | 2.45 µM | – | – | –
3 | COc1ccc(CN2C(=O)/C(=C\c3cc(OC)c(OC)c(OC)c3)c3cc(OC)ccc32)cc1 | – | 8.88 µM | – | – | 19.5 µM | 7.62 µM | – | – | 8.72 | 20.4 µM | 2.88 µM | 2.69 µM | 9.11 | 3.35 µM | 2.34 µM | 2.4 µM | 3.34 µM | – | – | –
4 | O=C(CCN1CCN(c2cccc(Cl)c2)CC1)N1CCc2c([nH]c3ccccc23)C1c1cccnc1 (centres undefined) | 19.6 µM | – | – | 32.5 µM | – | – | 19.1 µM | 20.1 | – | – | – | – | – | – | – | – | – | 6.24 | 6.6 | 4.71
5 | C/C(CN1C(=O)c2ccccc2C1=O)=N\NS(=O)(=O)c1cccc([N+](=O)[O-])c1 | > 100 µM | – | – | > 100 µM | – | – | > 100 µM | > 100 | – | – | – | – | – | – | – | – | – | – | – | –
6 | Cc1ccc(C)c(NC(=O)C(=O)C(c2cnc3ccc([N+](=O)[O-])cc3n2)[N+](=O)[O-])c1 (centres undefined) | – | > 100 µM | – | – | > 100 µM | > 100 µM | – | – | > 100 | > 100 µM | – | – | 63.8 | – | – | – | – | – | – | –
7 | O=C1c2ccccc2-c2c1c1ccccc1c(=O)n2CCCNCCCn1c2c(c3ccccc3c1=O)C(=O)c1ccccc1-2 | – | 22.9 µM | – | – | 5.52 µM | 27.7 µM | – | – | 32.9 | 19.7 µM | 9.34 µM | 3.94 µM | 17.3 | 2.08 µM | 10.7 µM | 9.54 µM | 8.42 µM | – | – | –
8 | Oc1c(CN2CCC(N3CCOCC3)CC2)cc(Cc2cc(CN3CCC(N4CCOCC4)CC3)c(O)c3ncccc23)c2cccnc12 | – | 74.7 µM | – | – | > 100 µM | 17 µM | – | – | 48 | 29 µM | 2.01 µM | 3.54 µM | > 100 | 0.565 µM | 1.11 µM | 10 µM | 1.2 µM | – | – | –
9 | CC(=O)N1CCC2(C=Nc3ccccc32)CC1 | > 100 µM | – | – | > 100 µM | – | – | > 100 µM | > 100 | – | – | – | – | – | – | – | – | – | – | – | –
10 | CCN(CC)CCCN(c1cc(OC)cc2nccnc12)S(=O)(=O)c1ccc(C)cc1 | > 100 µM | – | – | > 100 µM | – | – | > 100 µM | > 100 | – | – | – | – | – | – | – | – | – | – | – | –
11 | NC(=S)/N=C/c1c(O)c2ccccc2oc1=O | > 100 µM | – | – | > 100 µM | – | – | > 100 µM | > 100 | – | – | – | – | – | – | – | – | – | – | – | –
12 | Oc1cccc2c1NC1=C(CCC/C1=C\c1ccccc1)C2 | > 100 µM | – | – | – | – | – | > 100 µM | > 100 | – | – | – | – | – | – | – | – | – | – | – | –
13 | CC(C)C[C@@H](NC(=O)[C@@H](Cc1ccccc1)NC(=O)c1cnccn1)B1O[C@H]2[C@H](O)[C@@H](C(=O)NCCCC[C@@H]3NC(=O)[C@@H](Cc4ccccc4)NC(=O)[C@H](CC(=O)O)NC(=O)CNC(=O)[C@H](CCCN=C(N)N)NC3=O)O[C@@H](CN)[C@H]2O1 | – | 0.00891 µM and < 0.005 µM | – | – | 0.389 µM and 0.563 µM | 0.0648 µM and 0.025 µM | – | – | – | 0.0112 µM and 0.0113 µM | 0.00287 µM and < 0.005 µM | 0.0984 µM and 0.0844 µM | 0.586 | 0.0273 µM and 0.0153 µM | 0.00598 µM and 0.005 µM | 0.00413 µM and 0.005 µM | 0.003 µM and 0.005 µM | – | – | –
14 | CC(=O)Nc1ccc(/C=C(\NC(=O)c2ccccc2)c2nc3ccc4c(c3[nH]2)C(=O)c2ccccc2C4=O)cc1 | > 100 µM | – | – | > 100 µM | – | – | > 100 µM | > 100 | – | – | – | – | – | – | – | – | – | – | – | –
15 | CCNc1nnc(CSc2nc(-c3ccccc3)c(-c3ccccc3)[nH]2)s1 | 64.8 µM | – | – | – | – | – | 42.9 µM | 46.1 | – | – | – | – | – | – | – | – | – | – | – | –
16 | Cn1ncc(=S)[nH]c1=S | > 100 µM | – | – | > 100 µM | – | – | > 100 µM | > 100 | – | – | – | – | – | – | – | – | – | – | – | –
17 | CN(C)c1ccc(-c2cc(=O)c3ccccc3[nH]2)cc1 | > 100 µM | – | – | – | – | – | > 100 µM | > 100 | – | – | – | – | – | – | – | – | – | – | – | –
18 | COc1ccc(C(=O)Cn2c(C(=O)c3ccc(OC)cc3)nc3ccccc32)cc1 | – | > 34.4 µM | – | – | > 100 µM | > 100 µM | – | – | > 28.5 | > 100 µM | 0.284 µM | 0.671 µM | 4.06 | 2.43 µM | 3.39 µM | 2.14 µM | 3.52 µM | – | – | –
19 | COc1ccc(C(=O)Cn2c(C(=O)c3ccc(Cl)cc3)nc3ccccc32)cc1 | – | > 23.2 µM | – | – | > 100 µM | > 100 µM | – | – | > 23.7 | > 100 µM | 2.23 µM | 5.15 µM | > 37.4 | 21.2 µM | > 38.9 µM | 3.29 µM | > 38.7 µM | – | – | –
